Measurements as given in ChEMBL document CHEMBL1287777 (Bioorg Med Chem Lett, 2010).
pKi: −log10 of the molar value.

How the values were obtained:
Carbonic anhydrase 2 = Carbonic anhydrase 2 (Homo sapiens, UniProt P00918)
Carbonic anhydrase 1 = Carbonic anhydrase 1 (Homo sapiens, UniProt P00915); test: Inhibition of full length human CA1 cytosolic isoform by stopped-flow CO2 hydration method
Carbonic anhydrase 9 = Carbonic anhydrase 9 (Homo sapiens, UniProt Q16790); test: Inhibition of human recombinant CA9 catalytic domain by stopped-flow CO2 hydration method

Carbonic anhydrase 1, sequence (P00915 whole entry, the tested form may be a part, canonical isoform): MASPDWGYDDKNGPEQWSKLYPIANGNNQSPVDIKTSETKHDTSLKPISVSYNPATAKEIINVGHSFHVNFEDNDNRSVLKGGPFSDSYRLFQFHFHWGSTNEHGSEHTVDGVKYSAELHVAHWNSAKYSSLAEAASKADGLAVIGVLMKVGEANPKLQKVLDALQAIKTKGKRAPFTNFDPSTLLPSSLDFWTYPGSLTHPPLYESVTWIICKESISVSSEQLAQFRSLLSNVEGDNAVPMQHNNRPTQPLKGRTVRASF

SMILES	pKi (Carbonic anhydrase 2)	pKi (Carbonic anhydrase 1)	pKi (Carbonic anhydrase 9)
CCC(=O)c1cc2ccc(=O)oc2cc1O	< 4.00		5.10
CC(=O)c1c(OCCC23CC4CC(CC(C4)C2)C3)ccc2ccc(=O)oc12	< 4.00	< 4.00	7.19
CCOc1cc2oc(=O)ccc2cc1C(C)=O		< 4.00	5.13
CCOc1ccc2ccc(=O)oc2c1C(=O)CC	< 4.00	< 4.00	7.33
CC(=O)c1cc2ccc(=O)oc2cc1O	< 4.00		
CCC(=O)c1c(O)ccc2ccc(=O)oc12	< 4.00	< 4.00	
CCCOc1cc2oc(=O)ccc2cc1C(C)=O	< 4.00	< 4.00	5.12
CCOc1ccc2ccc(=O)oc2c1C(C)=O	< 4.00	< 4.00	7.15

The next lines start with the values.

pKi (Carbonic anhydrase 2)	pKi (Carbonic anhydrase 1)	pKi (Carbonic anhydrase 9)	SMILES
< 4.00	< 4.00	7.11	COc1ccc2ccc(=O)oc2c1C(C)=O
< 4.00	< 4.00	< 4.00	CC(=O)c1cc2ccc(=O)oc2cc1OCCC12CC3CC(CC(C3)C1)C2
	< 4.00	< 4.00	CC(=O)c1cc2ccc(=O)oc2cc1OCc1ccccc1
< 4.00	< 4.00	< 4.00	CCCCOc1cc2oc(=O)ccc2cc1C(C)=O
< 4.00	< 4.00	7.42	CCC(=O)c1c(OC)ccc2ccc(=O)oc12
< 4.00	< 4.00		CCCCOc1ccc2ccc(=O)oc2c1C(C)=O
< 4.00	< 4.00		CCCOc1ccc2ccc(=O)oc2c1C(=O)CC
< 4.00	< 4.00	5.11	COc1cc2oc(=O)ccc2cc1C(C)=O
	< 4.00	7.14	CC(=O)c1c(OCc2ccccc2)ccc2ccc(=O)oc12
< 4.00	< 4.00	7.25	CCCOc1ccc2ccc(=O)oc2c1C(C)=O
< 4.00	< 4.00	7.14	CC(=O)c1c(O)ccc2ccc(=O)oc12
